# Experimental data from patent publication US11638425B2, “Agent for inducing stress tolerance in plants” (Menicon Co. Ltd., priority 2017, dated 2023).
# What was measured:
# [1] = tested on: HSP17.6C-C1 of Arabidopsis thaliana; assay: HSP expression test (HSP17.6C-C1 upstream region linked to GUS, 4-MU production); assay type: in vivo; design: key: 4-MU per plant divided by 4-MU of 50 μM geldanamycin positive control; details: soaked 6 hours at 22° C., positive control 50 μM geldanamycin
# Procedure: First, a construct linked to β-glucuronidase (GUS) gene was introduced to 1 kb upstream of HSP17.6C-C1 of Arabidopsis thaliana (the family Brassicaceae) to prepare a mutant. Each naphthoquinone compound (shown in Table 1) dissolved in DMSO was diluted to 1 μM, 10 μM, 100 μM, or 1000 μM (final concentration) with deionized water to prepare a test solution of each example (final concentration of DMSO: 1.0% by volume). A 50 μM geldanamycin solution was similarly prepared as a positive control.
# Next, two individuals of 7-day-old Arabidopsis thaliana mutants grown in a ⅕ MS medium were soaked in 300 μL of the test solution of each example or the positive control at 22° C. for 6 hours. The Arabidopsis thaliana was washed with deionized water, then soaked in 200 μL of a 4-methylumbelliferyl-β-D-glucuronide hydrate solution containing a surfactant, and incubated at 22° C. for 16 hours in the dark. The fluorescence intensity of the supernatant was measured, and the amount of 4-methylumbelliferone (4-MU) production per plant was calculated. The calculated value of 4-MU was divided by the value of 4-MU of the positive control to calculate a ratio vs. positive control. A higher numerical value means that HSP was expressed at a larger level.
# Each shikonin compound or alkannin compound (shown in Table 2) dissolved in DMSO was diluted to 1 μM, 10 μM, 100 μM, or 1000 μM (final concentration) with deionized water to prepare a test solution of each example (final concentration of DMSO: 1.0% by volume). A 50 μM geldanamycin solution was similarly prepared as a positive control. The other test procedures were performed in the same way as in Test Example 1. The calculated value of 4-MU was divided by the value of 4-MU of the positive control to calculate a ratio vs. positive control. […]
# Arabidopsis thaliana = assay: Heat tolerance induction test based on chlorophyll concentration; assay type: in vivo; details: 50 μM in medium; heat-treated at 44° C. for 1 hour; 3 days culture after
# Procedure: A ⅕ MS medium was prepared in a 6-well plate, and filter paper was placed thereon. 12 individuals of wild-type Arabidopsis thaliana were seeded per well and grown at 22° C. for 7 days in a plant incubator under 16-hour light and 8-hour dark conditions. Next, the naphthoquinone compound of each example (shown in Table 3) dissolved in DMSO was added to a ⅕ MS medium, and each medium (final concentration: 50 μM) was prepared in a 6-well plate (final concentration of DMSO: 1.0% by volume). A medium containing 1.0% by volume of DMSO was used as a control.
# The Arabidopsis thaliana grown for 7 days in the 6-well plate was transplanted, together with the filter paper, to the medium containing the compound and cultured for 1 day in a plant incubator. The plate was placed in a plastic bag and heat-treated at 44° C. for 1 hour in a water bath. After the heat treatment, culture was performed for 3 days in a plant incubator. The leaves of 4 Arabidopsis thaliana individuals were cut out, and chlorophyll was extracted with 300 μL of ethanol. The absorbance of each extract was measured at 649 nm and 665 nm, and the chlorophyll concentration (mg/L) was calculated. A higher chlorophyll concentration means that heat tolerance is better.
# The shikonin compound of each example (shown in Table 4) dissolved in DMSO was added to a ⅕ MS medium, and each medium (final concentration: 50 μM) was prepared in a 6-well plate (final concentration of DMSO: 1.0% by volume). A medium containing 1% by volume of DMSO was used as a control. The other test procedures were performed in the same way as in Test Example 3.
# The Lithospermi radix extract used was Shikonix Liquid (BG) (trade name, manufactured by Ichimaru Pharcos Co., Ltd.) containing a Lithospermum erythrorhizon root extract. The Shikonix Liquid contained, as major components, shikonin compounds such as acetylshikonin, β-hydroxyisovalerylshikonin, and isobutyrylshikonin. The Shikonix Liquid also contained, as additional minor components, α-methyl-n-butylshikonin, β,β-dimethylacrylshikonin, isovalerylshikonin, and shikonin.
# The Shikonix Liquid (BG) was added at a dilution ratio of 150-fold to a ⅕ MS medium. The same amount of water was added as a control. ThermoZyme (manufactured by Fujimikogyo Co., Ltd.) was added at a dilution ratio of 150-fold as a positive control (Reference Example). The other test procedures were performed in the same way as in Test Example 3.
Compound,Ratio of 4-MU amount vs. positive control ([1]; 1 μM),Ratio of 4-MU amount vs. positive control ([1]; 10 μM),Ratio of 4-MU amount vs. positive control ([1]; 100 μM),Ratio of 4-MU amount vs. positive control ([1]; 1000 μM),Chlorophyll concentration (Arabidopsis thaliana) [mg/L]
"CC1=CC(=O)c2ccccc2C1=O [Example 10, 2-Methyl-1,4-naphthoquinone]",0.04,0.05,0.09,0.08,
"O=C1C=CC(=O)c2c(O)cccc21 [Example 3, 5-Hydroxy-1,4-naphthoquinone]",0.17,0.14,0.59,0.46,
"O=C1C=C(O)C(=O)c2ccccc21 [Example 2, 2-Hydroxy-1,4-naphthoquinone]",0.14,0.15,0.47,0.04,
"CCC(C)C(=O)O[C@H](CC=C(C)C)C1=CC(=O)c2c(O)ccc(O)c2C1=O (stereo partly drawn) [Example 18, α-Methyl-n-butylshikonin]",0.02,1.00,1.40,2.76,
"CC(C)=CC[C@H](O)C1=CC(=O)c2c(O)ccc(O)c2C1=O [Example 20, Alkannin]",0.04,0.11,0.62,1.13,
"CC(=O)O[C@H](CC=C(C)C)C1=CC(=O)c2c(O)ccc(O)c2C1=O [Example 14, Acetylshikonin]",0.05,1.03,1.00,0.81,5.73
"CC(C)=CC[C@@H](O)C1=CC(=O)c2c(O)ccc(O)c2C1=O [Example 13, Shikonin]",0.04,0.92,1.52,0.85,6.28
"CC(C)=CCC(OC(=O)C=C(C)C)C1=CC(=O)c2c(O)ccc(O)c2C1=O (stereo not drawn) [Example 19, β,β-Dimethylacrylshikonin]",0.02,0.95,1.35,2.28,
"CC(C)=CC[C@@H](OC(=O)C(C)C)C1=CC(=O)c2c(O)ccc(O)c2C1=O [Example 15, Isobutyrylshikonin]",0.03,1.79,1.19,1.23,6.29
"O=C1C=CC(=O)c2ccccc21 [Example 1, 1,4-Naphthoquinone]",0.13,0.76,0.27,0.03,
"CC(C)=CCC(OC(=O)CC(C)C)C1=CC(=O)c2c(O)ccc(O)c2C1=O (stereo not drawn) [Example 16, Isovalerylshikonin]",0.04,0.93,0.85,0.76,
"CC(C)=CC[C@@H](OC(=O)CC(C)(C)O)C1=CC(=O)c2c(O)ccc(O)c2C1=O [Example 17, β-Hydroxyisovalerylshikonin]",0.10,0.71,0.80,0.25,5.57
"O=C1C(Cl)=C(Cl)C(=O)c2cc([N+](=O)[O-])ccc21 [Example 9, 2,3-Dichloro-6-nitro-1,4-naphthoquinone]",0.17,0.91,0.66,0.48,
"COC1=CC(=O)c2ccccc2C1=O [Example 11, 2-Methoxy-1,4-naphthoquinone]",0.06,0.04,0.21,0.11,
"O=C1C(Cl)=C(Cl)C(=O)c2c1cccc2[N+](=O)[O-] [Example 8, 2,3-Dichloro-5-nitro-1,4-naphthoquinone]",0.15,1.00,0.38,0.46,
"CC1=CC(=O)c2c(O)cccc2C1=O [Example 4, 5-Hydroxy-2-methyl-1,4-naphthoquinone]",0.13,1.0,0.18,0.06,
"NC1=C(Cl)C(=O)c2ccccc2C1=O [Example 12, 2-Amino-3-chloro-1,4-naphthoquinone]",0.06,0.15,0.19,0.14,
